We go through 18 molecules from US20260317340A1, “COMPOUNDS, COMPOSITIONS, AND METHODS OF TREATING DISORDERS” (Chengdu Anticancer Bioscience, Ltd., priority 2023, published 2026).

The subject of assay [1] is RPE-Neo or RPE-MYC cells. The assay is described as follows: MTT assay of cellular proliferation (proliferative arrest). The conditions noted are these: read-out: Min. Effective conc. for Proliferative arrest (>50%). It counts as cell-based. On the technique in general: Tetrazolium assays rely on reduction of a dye to a coloured formazan, in cell work by metabolically active cells.

The subject of assay [2] is RPE-Neo or RPE-MYC or RPE-MYC expressing an EGFP-Histone 2B fusion protein. The assay is described as follows: Phenotypic screening assay: arrest in mitosis, change in DNA content (polyploidy), cell death. The following applies: 20 nM to 20 μM, 24, 48 or 72 hours. The format is cell-based. The method, boiled down: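 Compound exposure from 20 nM to 20 μM in RPE lines (Neo, MYC, or MYC with EGFP-histone H2B), seeded 18-24 h earlier; imaging at 24, 48 or 72 h read mitotic arrest or altered DNA content, with MTT for proliferation. Results reported as A–D range categories.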

[3] abbreviates: read-out: Min. Effective conc. for Along with Cell Death.
Where [4] appears, read: ≥5%, read-out: Min. Effective conc. for Mitotic Arrest (≥5%).
Setting [5] is: ≥5%, read-out: Min. Effective conc. for Polyploidy (≥5%).

Like-named read-outs stand apart in the source and are kept apart here.

With `COc1ccc(CN2C(=O)CC(c3ncc(C)o3)=Cc3ccc(-c4cnn(C(C)(C)CO)c4)cc32)cc1` [Compound 56, 8-(1-(1-hydroxy-2-methylpropan-2-yl)-1H-pyrazol-4-yl)-1-(4-methoxybenzyl)-4-(5-methyloxazol-2-yl)-1,3-dihydro-2H-benzo[b]azepin-2-one], the minimal effective concentration in assay [1], in assay [2] (setting [3]), in assay [2] (setting [4]) and in assay [2] (setting [5]) was 0.001 to 1 µM throughout.
For the molecule `CCOCCn1cc(-c2ccc3c(c2)N(Cc2ccc(OC)cc2)C(=O)CC(c2ncc(C)o2)=C3)cn1` [Compound 80, 8-(1-(2-ethoxyethyl)-1H-pyrazol-4-yl)-1-(4-methoxybenzyl)-4-(5-methyloxazol-2-yl)-1,3-dihydro-2H-benzo[b]azepin-2-one], the minimal effective concentration in assay [1], in assay [2] (setting [3]), in assay [2] (setting [4]) and in assay [2] (setting [5]) was 0.001 to 1 µM in each case.
As to `COc1ccc(CN2C(=O)CC(c3ncc(C)o3)=Cc3ccc(-c4cnn(CCC#N)c4)cc32)cc1` [Compound 59, 3-(4-(1-(4-Methoxybenzyl)-4-(5-methyloxazol-2-yl)-2-oxo-2,3-dihydro-1H-benzo[b]azepin-8-yl)-1H-pyrazol-1-yl)propanenitrile], the minimal effective concentration in assay [1], in assay [2] (setting [3]), in assay [2] (setting [4]) and in assay [2] (setting [5]) was 0.001 to 1 µM each time.
For the molecule `COc1ccc(CN2C(=O)CC(c3ncc(C)o3)=Cc3ccc(-c4cnn(C5CNC5)c4)cc32)cc1` [Compound 70, 8-(1-(Azetidin-3-yl)-1H-pyrazol-4-yl)-1-(4-methoxybenzyl)-4-(5-methyloxazol-2-yl)-1,3-dihydro-2H-benzo[b]azepin-2-one], the minimal effective concentration in assay [1], in assay [2] (setting [3]), in assay [2] (setting [4]) and in assay [2] (setting [5]) was 0.001 to 1 µM throughout.
Consider `CCS(=O)(=O)N1CC(CC#N)(n2cc(-c3ccc4c(c3)N(Cc3ccc(OC)cc3)C(=O)CC(c3ncc(C)o3)=C4)cn2)C1` [Compound 84, 2-(1-(Ethylsulfonyl)-3-(4-(1-(4-methoxybenzyl)-4-(5-methyloxazol-2-yl)-2-oxo-2,3-dihydro-1H-benzo[b]azepin-8-yl)-1H-pyrazol-1-yl)azetidin-3-yl)acetonitrile], for which the minimal effective concentration in assay [1], in assay [2] (setting [3]), in assay [2] (setting [4]) and in assay [2] (setting [5]) was 0.001 to 1 µM each time.
As to `Cc1cnc(C2=Cc3ccc(Br)cc3N(Cc3ccc(C)c(F)c3)C(=O)C2)o1` [Compound 19, 8-bromo-1-(3-fluoro-4-methylbenzyl)-4-(5-methyloxazol-2-yl)-1,3-dihydro-2H-benzo[b]azepin-2-one], the minimal effective concentration in assay [1], in assay [2] (setting [3]), in assay [2] (setting [4]) and in assay [2] (setting [5]) was 0.001 to 1 µM in each case.
As for `Cc1cnc(C2=Cc3ccc(-c4cnn(C)c4)cc3N(Cc3ccc(C)c(F)c3)C(=O)C2)o1` [Compound 20, 1-(3-fluoro-4-methylbenzyl)-8-(1-methyl-1H-pyrazol-4-yl)-4-(5-methyloxazol-2-yl)-1,3-dihydro-2H-benzo[b]azepin-2-one], the minimal effective concentration in assay [1], in assay [2] (setting [3]), in assay [2] (setting [4]) and in assay [2] (setting [5]) was 0.001 to 1 µM throughout.
On to `COc1ccc(CN2C(=O)CC(c3ncc(C)o3)=Cc3ccc(-c4cnn(C(C)=O)c4)cc32)cc1` [Compound 81, 8-(1-Acetyl-1H-pyrazol-4-yl)-1-(4-methoxybenzyl)-4-(5-methyloxazol-2-yl)-1,3-dihydro-2H-benzo[b]azepin-2-one], for which the minimal effective concentration in assay [1], in assay [2] (setting [3]), in assay [2] (setting [4]) and in assay [2] (setting [5]) was 0.001 to 1 µM throughout.
For the molecule `COc1ccc(CN2C(=O)CC(c3nc(C4CC4)no3)=Cc3ccc(-c4cnn(CC(C)(C)O)c4)cc32)cc1` [Compound 95, 4-(3-cyclopropyl-1,2,4-oxadiazol-5-yl)-8-(1-(2-hydroxy-2-methylpropyl)-1H-pyrazol-4-yl)-1-(4-methoxybenzyl)-1,3-dihydro-2H-benzo[b]azepin-2-one], the minimal effective concentration in assay [1], in assay [2] (setting [3]), in assay [2] (setting [4]) and in assay [2] (setting [5]) was 0.001 to 1 µM each time.
In the case of `COc1ccc(CN2C(=O)CC(c3nc(C)no3)=Cc3ccc(-c4cnn(CC(C)(C)O)c4)cc32)cc1` [Compound 99, 8-(1-(2-Hydroxy-2-methylpropyl)-1H-pyrazol-4-yl)-1-(4-methoxybenzyl)-4-(3-methyl-1,2,4-oxadiazol-5-yl)-1,3-dihydro-2H-benzo[b]azepin-2-one], the minimal effective concentration in assay [1], in assay [2] (setting [3]), in assay [2] (setting [4]) and in assay [2] (setting [5]) was 0.001 to 1 µM in each case.
`COc1ccc(CN2C(=O)CC(c3ncc(C)o3)=Cc3ccc(-c4ccn(C)c(=O)c4)cc32)cc1` [Compound 62, 1-(4-Methoxybenzyl)-8-(1-methyl-2-oxo-1,2-dihydropyridin-4-yl)-4-(5-methyloxazol-2-yl)-1,3-dihydro-2H-benzo[b]azepin-2-one]: the minimal effective concentration in assay [1], in assay [2] (setting [3]), in assay [2] (setting [4]) and in assay [2] (setting [5]) was 0.001 to 1 µM each time.
As for `COc1ccc(CN2C(=O)CC(c3nnco3)=Cc3ccc(-c4cnn(CC(C)(C)O)c4)cc32)cc1` [Compound 98, 8-(1-(2-Hydroxy-2-methylpropyl)-1H-pyrazol-4-yl)-1-(4-methoxybenzyl)-4-(1,3,4-oxadiazol-2-yl)-1,3-dihydro-2H-benzo[b]azepin-2-one], the minimal effective concentration in assay [1], in assay [2] (setting [3]), in assay [2] (setting [4]) and in assay [2] (setting [5]) was 0.001 to 1 µM each time.
As to `COc1ccc(CN2C(=O)CC(c3ncc(C)o3)=Cc3ccc(-c4ccoc4)cc32)cc1` [Compound 29, 8-(furan-3-yl)-1-(4-methoxybenzyl)-4-(5-methyloxazol-2-yl)-1,3-dihydro-2H-benzo[b]azepin-2-one], the minimal effective concentration in assay [1], in assay [2] (setting [3]), in assay [2] (setting [4]) and in assay [2] (setting [5]) was 0.001 to 1 µM throughout.
With `COc1ccc(CN2C(=O)CC(c3ncc(C)o3)=Cc3ccc(-c4cnn(C(C)C(=O)O)c4)cc32)cc1` (stereo not drawn) [Compound 75, 2-(4-(1-(4-Methoxybenzyl)-4-(5-methyloxazol-2-yl)-2-oxo-2,3-dihydro-1H-benzo[b]azepin-8-yl)-1H-pyrazol-1-yl)propanoic acid], the minimal effective concentration in assay [1], in assay [2] (setting [3]), in assay [2] (setting [4]) and in assay [2] (setting [5]) was 1 to 10 µM throughout.
Take `Cc1cnc(C2=Cc3ccc(-c4cnn(CC(C)(C)O)c4)cc3N(Cc3ccc(C)c(F)c3)C(=O)C2)o1` [Compound 101, 1-(3-fluoro-4-methylbenzyl)-8-(1-(2-hydroxy-2-methylpropyl)-1H-pyrazol-4-yl)-4-(5-methyloxazol-2-yl)-1,3-dihydro-2H-benzo[b]azepin-2-one]: the minimal effective concentration in assay [1], in assay [2] (setting [3]), in assay [2] (setting [4]) and in assay [2] (setting [5]) was 0.001 to 1 µM throughout.
For `COc1ccc(CN2C(=O)CC(c3ccon3)=Cc3ccc(-c4cnn(CC(C)(C)O)c4)cc32)cc1` [Compound 97, 8-(1-(2-Hydroxy-2-methylpropyl)-1H-pyrazol-4-yl)-4-(isoxazol-3-yl)-1-(4-methoxybenzyl)-1,3-dihydro-2H-benzo[b]azepin-2-one], the minimal effective concentration in assay [1], in assay [2] (setting [3]), in assay [2] (setting [4]) and in assay [2] (setting [5]) was 0.001 to 1 µM throughout.
Regarding `COc1ccc(C(=O)N2CCC(c3ncc(C)o3)=Cc3ccc(-c4cnn(CC(C)(C)O)c4)cc32)cc1F` [Compound 106, (3-Fluoro-4-methoxyphenyl)(8-(1-(2-hydroxy-2-methylpropyl)-1H-pyrazol-4-yl)-4-(5-methyloxazol-2-yl)-2,3-dihydro-1H-benzo[b]azepin-1-yl)methanone], the minimal effective concentration in assay [1], in assay [2] (setting [3]), in assay [2] (setting [4]) and in assay [2] (setting [5]) was 0.001 to 1 µM throughout.
For `Cc1ccc(CN2C(=O)CC(c3nnc(C4CC4)o3)=C(Br)c3ccc(OCCOCCOCCOCCOc4ccc5c(c4)N(Cc4ccc(C)c(F)c4)C(=O)CC(c4nnc(C6CC6)o4)=C5Br)cc32)cc1F` [Compound 2, 8,8′-((((Oxybis(ethane-2,1-diyl))bis(oxy))bis(ethane-2,1-diyl))bis(oxy))bis(5-bromo-4-(5-cyclopropyl-1,3,4-oxadiazol-2-yl)-1-(3-fluoro-4-methylbenzyl)-1,3-dihydro-2H-benzo[b]azepin-2-one)], the minimal effective concentration in assay [1], in assay [2] (setting [3]), in assay [2] (setting [4]) and in assay [2] (setting [5]) was 1 to 10 µM in each case.
